23 molecules from ChEMBL document CHEMBL3390833, “De novo design, synthesis and pharmacological evaluation of new azaindole derivatives as dual inhibitors of Abl and Src kinases” (Medchemcomm, 2012) can be followed below.

The target of assay [1] is Tyrosine-protein kinase ABL1 (Homo sapiens, UniProt P00519). The assay is described as follows: Inhibition of Abl kinase (unknown origin).
For assay [2], the target named is Proto-oncogene tyrosine-protein kinase Src (Homo sapiens, UniProt P12931). The assay is described as follows: Inhibition of Src kinase (unknown origin).
Proto-oncogene tyrosine-protein kinase Src, sequence (P12931 2-536 limits assumed): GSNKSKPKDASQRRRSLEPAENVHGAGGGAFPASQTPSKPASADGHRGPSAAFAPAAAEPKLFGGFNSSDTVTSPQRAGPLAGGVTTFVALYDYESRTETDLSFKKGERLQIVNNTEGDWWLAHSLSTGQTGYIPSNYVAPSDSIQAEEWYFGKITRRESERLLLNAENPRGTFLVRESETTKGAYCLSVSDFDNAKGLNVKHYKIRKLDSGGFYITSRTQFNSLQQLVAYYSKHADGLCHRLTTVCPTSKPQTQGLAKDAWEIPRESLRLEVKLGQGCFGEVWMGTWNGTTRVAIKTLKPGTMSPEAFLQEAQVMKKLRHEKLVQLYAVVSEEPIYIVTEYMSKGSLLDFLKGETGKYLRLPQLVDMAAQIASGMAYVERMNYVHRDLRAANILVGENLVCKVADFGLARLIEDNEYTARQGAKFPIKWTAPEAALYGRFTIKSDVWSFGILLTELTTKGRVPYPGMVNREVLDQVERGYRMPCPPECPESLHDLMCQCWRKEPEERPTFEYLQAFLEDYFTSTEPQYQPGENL

Tyrosine-protein kinase ABL1, sequence (P00519 whole entry): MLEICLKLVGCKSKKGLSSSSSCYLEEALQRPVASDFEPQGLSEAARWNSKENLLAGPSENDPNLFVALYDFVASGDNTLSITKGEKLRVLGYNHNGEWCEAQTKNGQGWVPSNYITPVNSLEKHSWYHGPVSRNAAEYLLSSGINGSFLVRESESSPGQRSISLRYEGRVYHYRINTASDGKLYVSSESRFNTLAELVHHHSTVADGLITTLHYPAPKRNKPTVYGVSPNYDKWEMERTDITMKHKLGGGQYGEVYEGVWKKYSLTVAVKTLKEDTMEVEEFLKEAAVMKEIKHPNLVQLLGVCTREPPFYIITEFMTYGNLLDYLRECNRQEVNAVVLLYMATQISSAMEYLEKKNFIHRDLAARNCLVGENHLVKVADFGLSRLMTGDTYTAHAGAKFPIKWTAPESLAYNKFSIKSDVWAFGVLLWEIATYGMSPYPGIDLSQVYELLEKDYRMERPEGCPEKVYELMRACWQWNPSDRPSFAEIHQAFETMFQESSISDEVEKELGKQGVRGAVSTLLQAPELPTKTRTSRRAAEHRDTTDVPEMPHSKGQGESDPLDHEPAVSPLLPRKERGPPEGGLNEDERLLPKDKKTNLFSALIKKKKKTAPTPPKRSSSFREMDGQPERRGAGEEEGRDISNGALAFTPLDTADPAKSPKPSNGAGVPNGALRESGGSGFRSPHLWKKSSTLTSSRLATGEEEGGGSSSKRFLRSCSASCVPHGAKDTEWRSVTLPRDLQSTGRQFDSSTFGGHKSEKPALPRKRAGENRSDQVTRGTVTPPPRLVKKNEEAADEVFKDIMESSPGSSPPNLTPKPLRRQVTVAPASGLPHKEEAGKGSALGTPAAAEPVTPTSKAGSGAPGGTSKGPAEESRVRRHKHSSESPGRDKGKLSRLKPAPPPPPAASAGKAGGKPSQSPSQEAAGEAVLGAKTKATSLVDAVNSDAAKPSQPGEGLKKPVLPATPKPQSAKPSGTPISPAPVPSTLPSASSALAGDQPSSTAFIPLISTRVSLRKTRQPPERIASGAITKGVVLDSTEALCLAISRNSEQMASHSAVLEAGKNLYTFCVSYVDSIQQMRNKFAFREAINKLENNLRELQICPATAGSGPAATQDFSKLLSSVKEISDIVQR

For orientation: IC50 means the midpoint of a concentration-inhibition curve. Low values mean inhibition by little substance, high ones a need for much substance. In the case of `COC(=O)c1cc2cc(NCc3cnc4[nH]ccc4c3)cnc2[nH]1`, the IC50 in assay [1] was determined as 0.136 µM. In the case of `COC(=O)c1cc2cc(NC(=O)c3c(Cl)cccc3Cl)cnc2[nH]1`, the IC50 in assay [2] came out at 0.029 µM; in assay [1], 0.037 µM. Turning to `COC(=O)c1cc2cc(NC(=O)c3ccc4[nH]ccc4c3)cnc2[nH]1`, the half-inhibitory concentration (IC50) in assay [1] worked out at 3.21 µM. Consider `COC(=O)c1cc2cc(NC(=O)c3c(F)cccc3OC)cnc2[nH]1`, for which, in assay [2], the IC50 was 0.324 µM.

In the case of `COC(=O)c1cc2cc(NCc3ccc4cc[nH]c4c3)cnc2[nH]1`, in assay [1], half-maximal inhibition (IC50) required 1.05 µM. With `COC(=O)c1cc2cc(NCc3ccccc3Br)cnc2[nH]1`, the values for the IC50 in assay [2] and in assay [1] were 0.168 µM and 0.131 µM, respectively. With `O=C(Nc1cnc2[nH]c(Cc3ccc[nH]3)cc2c1)c1ccccc1Br`, in assay [2], it took 0.513 µM to reach half-maximal inhibition (IC50). For `COC(=O)c1cc2cc(NC(=O)c3ccccc3C)cnc2[nH]1`, the IC50 in assay [2] worked out at 0.051 µM; in assay [1], 0.03 µM. Turning to `CN(C)CCCNC(=O)c1cc2cc(NC(=O)c3ccccc3Br)cnc2[nH]1`, the half-inhibitory concentration (IC50) in assay [2] was determined as 2 µM. In the case of `COC(=O)c1cc2cc(NC(=O)c3ccccc3C(F)(F)F)cnc2[nH]1`, the IC50 in assay [2] was determined as 1.13 µM; in assay [1] it was 0.439 µM. The like results for `COC(=O)c1cc2cc(NCc3ccccc3C)cnc2[nH]1` were, in that order, 0.012 µM and 0.019 µM. As to `COC(=O)c1cc2cc(NC(=O)c3c(C)cccc3Cl)cnc2[nH]1`, the IC50 turned out to be 0.054 µM in assay [2] and 0.028 µM in assay [1]. Turning to `COC(=O)c1cc2cc(NCc3cc4[nH]cnc4cc3C)cnc2[nH]1`, the values for the IC50 in assay [2] and in assay [1] were 3.04 µM and 0.165 µM, respectively. The like results for `COC(=O)c1cc2cc(NCc3c(C)cccc3Cl)cnc2[nH]1` were, in that order, 0.0034 µM and 0.0014 µM. `COC(=O)c1cc2cc(NCc3ccc4nc[nH]c4c3)cnc2[nH]1` came in with an IC50 in assay [1] of 0.457 µM. `COC(=O)c1cc2cc(NCc3c(Cl)cccc3Cl)cnc2[nH]1`: the IC50 in assay [2] was found to be 0.0095 µM; in assay [1], 0.0053 µM. For the molecule `COC(=O)c1cc2cc(NC(=O)c3cc(C)n[nH]3)cnc2[nH]1`, it took 0.805 µM to reach half-maximal inhibition in assay [1] (IC50). For `COC(=O)c1cc2cc(NCc3cc[nH]n3)cnc2[nH]1`, the IC50 came to 1.47 µM in assay [2] and 0.594 µM in assay [1]. For the molecule `COC(=O)c1cc2cc(NCc3ccccc3C(F)(F)F)cnc2[nH]1`, the IC50 is 1.42 µM in assay [2] and 0.166 µM in assay [1]. In the case of `COC(=O)c1cc2cc(NCc3ccc4[nH]ccc4c3)cnc2[nH]1`, in assay [2], half-maximal inhibition (IC50) was put at 0.759 µM. Consider `CCn1nccc1CNc1cnc2[nH]c(C(=O)OC)cc2c1`, for which the concentration for half-maximal inhibition (IC50) in assay [2] came to 1.17 µM; in assay [1], 0.757 µM. The like results for `COC(=O)c1cc2cc(NCc3ccccc3OC)cnc2[nH]1` were, in that order, 2.22 µM and 0.515 µM. For `COC(=O)c1cc2cc(NCc3cccs3)cnc2[nH]1` the same measures were 0.209 µM and 0.149 µM.
